#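 Step 1: Grow cells in 96-well plates. Step 2: Expose to compound for 48 hours at 5 concentrations. Step 3: Interpolate endpoints linearly; if unreached, use highest concentration. The concentration for full growth arrest is given as TGI.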
# Legend:
# Test in all cases: NCI tumour cell line growth inhibition, 48 h
# [1] = test system: HOP-92 NSCLC
# [2] = test system: UACC-62 melanoma
# [3] = test system: MDA-MB-435
# [4] = test system: OVCAR-8 ovarian
# [5] = test system: NCI-H226 lung
# [6] = test system: OVCAR-3 ovarian
# [7] = test system: ACHN renal
# [8] = test system: KM12 colon
# [9] = test system: UACC-257 melanoma
# [10] = test system: DU-145 prostate
# [11] = test system: NCI-H23 lung
# [12] = test system: RPMI-8226 leukemia
# [13] = test system: SK-MEL-28 melanoma
# [14] = test system: BT-549 breast
# [15] = test system: OVCAR-4 ovarian
# [16] = test system: NCI/ADR-RES ovarian
# [17] = test system: MDA-N
# [18] = test system: RXF 393 renal
# [19] = test system: MOLT-4 leukemia
# [20] = test system: M14 melanoma
# [21] = test system: IGROV1 ovarian
# [22] = test system: SR leukemia
# [23] = test system: HT29 colon
# [24] = test system: HCC-2998 colon
# [25] = test system: CCRF-CEM leukemia
# [26] = test system: NCI-H460 lung
# [27] = test system: EKVX NSCLC
# [28] = test system: TK-10 renal
# [29] = test system: SF-295 CNS
# [30] = test system: SNB-19 CNS
# [31] = test system: MDA-MB-231 breast
# [32] = test system: HCT-15 colon
# [33] = test system: SF-268 CNS
# [34] = test system: SW-620 colon
# [35] = test system: SNB-75 CNS
# [36] = test system: COLO 205 colon
# [37] = test system: SF-539 CNS
# [38] = test system: CAKI-1 renal
# [39] = test system: HCT-116 colon
# [40] = test system: HL-60(TB) leukemia
# [41] = test system: T-47D breast
# [42] = test system: MCF7 breast
# [43] = test system: K-562 leukemia
# [44] = test system: A549 NSCLC
# [45] = test system: UO-31 renal
# [46] = test system: HOP-62 NSCLC
# [47] = test system: MALME-3M melanoma
# [48] = test system: OVCAR-5 ovarian
# [49] = test system: 786-0 renal
# [50] = test system: SK-MEL-2 melanoma
# [51] = test system: NCI-H522 lung
# [52] = test system: SK-OV-3 ovarian
# [53] = test system: SK-MEL-5 melanoma
# [54] = test system: PC-3 prostate
# [55] = test system: SN12C renal
# [56] = test system: A498 renal
# [57] = test system: HS 578T breast
# [58] = test system: U251 CNS
# [59] = test system: LOX IMVI melanoma
structure (smiles),measurement,setting,value
Clc1cc(Cl)cc(N=C/C=C/Nc2cc(Cl)cc(Cl)c2)c1,TGI,[1],> 100 µM
same,TGI,[2],48 µM
same,TGI,[3],35.9 µM
same,TGI,[4],42.5 µM
same,TGI,[5],32.8 µM
same,TGI,[6],27.7 µM
same,TGI,[7],44.7 µM
same,TGI,[8],30.2 µM
same,TGI,[9],> 100 µM
same,TGI,[10],44.3 µM
same,TGI,[11],30.6 µM
same,TGI,[12],76.9 µM
same,TGI,[13],47 µM
same,TGI,[14],> 100 µM
same,TGI,[15],32.7 µM
same,TGI,[16],34.6 µM
same,TGI,[17],38.6 µM
same,TGI,[18],36.8 µM
same,TGI,[19],49.6 µM
same,TGI,[20],47.6 µM
same,TGI,[21],55.8 µM
same,TGI,[22],86.4 µM
same,TGI,[23],28.5 µM
same,TGI,[24],33.4 µM
same,TGI,[25],60.9 µM
same,TGI,[26],43.5 µM
same,TGI,[27],26.9 µM
same,TGI,[28],87 µM
same,TGI,[29],51.4 µM
same,TGI,[30],53.8 µM
same,TGI,[31],30.2 µM
same,TGI,[32],30.6 µM
same,TGI,[33],47.6 µM
same,TGI,[34],37.6 µM
same,TGI,[35],39.3 µM
same,TGI,[36],30.2 µM
same,TGI,[37],58.9 µM
same,TGI,[38],38.2 µM
same,TGI,[39],30.1 µM
same,TGI,[40],49.7 µM
same,TGI,[41],> 100 µM
same,TGI,[42],27.2 µM
same,TGI,[43],66.2 µM
same,TGI,[44],43.1 µM
same,TGI,[45],71.7 µM
same,TGI,[46],51.8 µM
same,TGI,[47],> 100 µM
same,TGI,[48],51.9 µM
same,TGI,[49],31.4 µM
same,TGI,[50],40.7 µM
same,TGI,[51],34.1 µM
same,TGI,[52],89 µM
same,TGI,[53],34.2 µM
same,TGI,[54],36.6 µM
same,TGI,[55],38.8 µM
same,TGI,[56],57.3 µM
same,TGI,[57],> 100 µM
same,TGI,[58],33.5 µM
CCOC(=O)c1nc2cc(C(F)(F)F)ccc2nc1Nc1ccc(OC)cc1,TGI,[1],> 100 µM
same,TGI,[2],> 100 µM
same,TGI,[3],> 100 µM
same,TGI,[4],> 100 µM
same,TGI,[5],> 100 µM
same,TGI,[6],> 100 µM
same,TGI,[7],> 100 µM
same,TGI,[8],> 100 µM
same,TGI,[9],> 100 µM
same,TGI,[10],> 100 µM
same,TGI,[11],> 100 µM
same,TGI,[12],> 100 µM
same,TGI,[13],> 100 µM
same,TGI,[14],> 100 µM
same,TGI,[59],> 100 µM
same,TGI,[16],> 100 µM
same,TGI,[17],> 100 µM
same,TGI,[18],> 100 µM
same,TGI,[19],> 100 µM
same,TGI,[20],> 100 µM
same,TGI,[21],> 100 µM
same,TGI,[22],> 100 µM
same,TGI,[23],> 100 µM
same,TGI,[24],> 100 µM
same,TGI,[27],> 100 µM
same,TGI,[28],> 100 µM
same,TGI,[29],> 100 µM
same,TGI,[30],> 100 µM
same,TGI,[31],> 100 µM
same,TGI,[32],> 100 µM
same,TGI,[33],> 100 µM
same,TGI,[34],> 100 µM
same,TGI,[35],> 100 µM
same,TGI,[36],> 100 µM
same,TGI,[37],> 100 µM
same,TGI,[38],> 100 µM
same,TGI,[39],> 100 µM
same,TGI,[40],> 100 µM
same,TGI,[41],> 100 µM
same,TGI,[42],> 100 µM
same,TGI,[44],> 100 µM
same,TGI,[45],> 100 µM
same,TGI,[46],> 100 µM
same,TGI,[48],> 100 µM
same,TGI,[49],> 100 µM
same,TGI,[50],> 100 µM
same,TGI,[51],> 100 µM
same,TGI,[53],> 100 µM
same,TGI,[54],> 100 µM
same,TGI,[55],> 100 µM
same,TGI,[56],> 100 µM
same,TGI,[57],> 100 µM
CC1=NC(=Cc2ccccc2O)C(=O)N1n1c(-c2ccccc2)nc2ccccc2c1=O,TGI,[1],> 100 µM
same,TGI,[2],34.6 µM
same,TGI,[3],> 100 µM
same,TGI,[4],> 100 µM
same,TGI,[5],> 100 µM
same,TGI,[6],> 100 µM
same,TGI,[7],> 100 µM
same,TGI,[8],> 100 µM
same,TGI,[9],> 100 µM
same,TGI,[10],> 100 µM
same,TGI,[11],> 100 µM
same,TGI,[12],> 100 µM
same,TGI,[13],> 100 µM
same,TGI,[14],> 100 µM
same,TGI,[59],> 100 µM
same,TGI,[15],> 100 µM
same,TGI,[16],93.5 µM
same,TGI,[17],> 100 µM
same,TGI,[18],> 100 µM
same,TGI,[19],> 100 µM
same,TGI,[20],> 100 µM
same,TGI,[21],> 100 µM
same,TGI,[22],> 100 µM
same,TGI,[23],> 100 µM
same,TGI,[24],> 100 µM
same,TGI,[25],> 100 µM
same,TGI,[26],> 100 µM
same,TGI,[27],> 100 µM
same,TGI,[28],> 100 µM
same,TGI,[29],> 100 µM
same,TGI,[30],> 100 µM
same,TGI,[31],> 100 µM
same,TGI,[32],> 100 µM
same,TGI,[33],> 100 µM
same,TGI,[34],> 100 µM
same,TGI,[35],> 100 µM
same,TGI,[36],> 100 µM
same,TGI,[37],87.3 µM
same,TGI,[39],> 100 µM
same,TGI,[40],> 100 µM
same,TGI,[41],> 100 µM
same,TGI,[42],74.2 µM
same,TGI,[43],> 100 µM
same,TGI,[44],> 100 µM
same,TGI,[45],> 100 µM
same,TGI,[46],> 100 µM
same,TGI,[47],> 100 µM
same,TGI,[48],> 100 µM
same,TGI,[49],> 100 µM
same,TGI,[51],> 100 µM
same,TGI,[52],> 100 µM
same,TGI,[53],61.4 µM
same,TGI,[54],> 100 µM
same,TGI,[55],> 100 µM
same,TGI,[56],> 100 µM
same,TGI,[57],> 100 µM
same,TGI,[58],> 100 µM
Nc1ncnc2oc(C3OC(COC(=O)c4ccccc4)C(OC(=O)c4ccccc4)C3OC(=O)c3ccccc3)nc12 (stereo not given),TGI,[1],> 100 µM
same,TGI,[2],> 100 µM
same,TGI,[3],> 100 µM
same,TGI,[4],> 100 µM
same,TGI,[5],> 100 µM
same,TGI,[6],> 100 µM
same,TGI,[7],> 100 µM
same,TGI,[8],> 100 µM
same,TGI,[9],> 100 µM
same,TGI,[10],> 100 µM
same,TGI,[11],> 100 µM
same,TGI,[12],> 100 µM
same,TGI,[13],> 100 µM
same,TGI,[14],> 100 µM
same,TGI,[59],> 100 µM
same,TGI,[15],> 100 µM
same,TGI,[16],> 100 µM
same,TGI,[17],> 100 µM
same,TGI,[18],> 100 µM
same,TGI,[19],> 100 µM
same,TGI,[20],> 100 µM
same,TGI,[21],> 100 µM
same,TGI,[22],> 100 µM
same,TGI,[23],> 100 µM
same,TGI,[24],> 100 µM
same,TGI,[25],> 100 µM
same,TGI,[26],> 100 µM
same,TGI,[27],> 100 µM
same,TGI,[28],> 100 µM
same,TGI,[29],> 100 µM
same,TGI,[30],> 100 µM
same,TGI,[31],> 100 µM
same,TGI,[32],> 100 µM
same,TGI,[33],> 100 µM
same,TGI,[34],> 100 µM
same,TGI,[35],> 100 µM
same,TGI,[36],> 100 µM
same,TGI,[37],> 100 µM
same,TGI,[38],> 100 µM
same,TGI,[39],> 100 µM
same,TGI,[40],> 100 µM
same,TGI,[41],> 100 µM
same,TGI,[42],> 100 µM
same,TGI,[43],> 100 µM
same,TGI,[44],> 100 µM
same,TGI,[45],> 100 µM
same,TGI,[46],> 100 µM
same,TGI,[47],> 100 µM
same,TGI,[48],> 100 µM
same,TGI,[49],> 100 µM
same,TGI,[51],> 100 µM
same,TGI,[52],> 100 µM
same,TGI,[53],> 100 µM
same,TGI,[54],> 100 µM
same,TGI,[55],> 100 µM
same,TGI,[56],82.6 µM
same,TGI,[57],> 100 µM
same,TGI,[58],> 100 µM
